Source: the NIST ThermoML archive (doi:10.1021/acs.jced.6b00210)
Numbers after ± are expanded uncertainties.

What was measured:
[1] = 100 kPa, Liquid; for viscosity: Concentric cylinders viscometry; for mass density: Vibrating tube method
[2] = xn = mol fraction of the nth substance listed; conditions: 100 kPa, Liquid, x2 = 0; for viscosity: Concentric cylinders viscometry; for mass density: Vibrating tube method

| SMILES | viscosity ([1]; 293.15 K) [mPa·s] | mass density ([1]; 293.15 K) [kg/m3] | viscosity ([1]; 298.15 K) [mPa·s] | mass density ([1]; 298.15 K) [kg/m3] | viscosity ([1]; 303.15 K) [mPa·s] | mass density ([1]; 303.15 K) [kg/m3] | viscosity ([1]; 308.15 K) [mPa·s] | mass density ([1]; 308.15 K) [kg/m3] | viscosity ([1]; 313.15 K) [mPa·s] | mass density ([1]; 313.15 K) [kg/m3] | viscosity ([1]; 318.15 K) [mPa·s] | mass density ([1]; 318.15 K) [kg/m3] | viscosity ([1]; 323.15 K) [mPa·s] | mass density ([1]; 323.15 K) [kg/m3] | viscosity ([2]; 293.15 K) [mPa·s] | mass density ([2]; 293.15 K) [kg/m3] | viscosity ([2]; 298.15 K) [mPa·s] | mass density ([2]; 298.15 K) [kg/m3] | viscosity ([2]; 303.15 K) [mPa·s] | mass density ([2]; 303.15 K) [kg/m3] | also measured |
| --- | --- | --- | --- | --- | --- | --- | --- | --- | --- | --- | --- | --- | --- | --- | --- | --- | --- | --- | --- | --- | --- |
| CCCC(C)O (stereo not drawn) [pentan-2-ol] | 3.97 ± 0.48 | 809.3 ± 0.2 | 3.44 ± 0.41 | 805.3 ± 0.2 | 2.94 ± 0.35 | 801.2 ± 0.2 | 2.48 ± 0.3 | 797 ± 0.2 | 2.04 ± 0.25 | 792.7 ± 0.2 | 1.65 ± 0.2 | 788.4 ± 0.2 | 1.29 ± 0.16 | 784 ± 0.2 |  |  |  |  |  |  |  |
| CCC(C)O (stereo not drawn) [butan-2-ol] + Nc1ccccc1 |  |  |  |  |  |  |  |  |  |  |  |  |  |  | 3.67 ± 0.44 | 806.7 ± 0.2 | 3.04 ± 0.37 | 802.7 ± 0.2 | 2.54 ± 0.31 | 798.4 ± 0.2 | viscosity ([2]; 308.15 K): 2.13 ± 0.26 mPa·s; mass density ([2]; 308.15 K): 794.1 ± 0.2 kg/m3; viscosity ([2]; 313.15 K): 1.8 ± 0.22 mPa·s; mass density ([2]; 313.15 K): 789.8 ± 0.2 kg/m3; viscosity ([2]; 318.15 K): 1.54 ± 0.19 mPa·s; mass density ([2]; 318.15 K): 785.2 ± 0.2 kg/m3; viscosity ([2]; 323.15 K): 1.33 ± 0.16 mPa·s; mass density ([2]; 323.15 K): 780.6 ± 0.2 kg/m3 |
| CC(C)O [propan-2-ol] + Nc1ccccc1 |  |  |  |  |  |  |  |  |  |  |  |  |  |  | 2.42 ± 0.29 | 785.4 ± 0.2 | 2.08 ± 0.25 | 781.1 ± 0.2 | 1.8 ± 0.22 | 776.8 ± 0.2 | viscosity ([2]; 308.15 K): 1.56 ± 0.19 mPa·s; mass density ([2]; 308.15 K): 772.4 ± 0.2 kg/m3; viscosity ([2]; 313.15 K): 1.36 ± 0.16 mPa·s; mass density ([2]; 313.15 K): 768 ± 0.2 kg/m3; viscosity ([2]; 318.15 K): 1.19 ± 0.14 mPa·s; mass density ([2]; 318.15 K): 763.4 ± 0.2 kg/m3; viscosity ([2]; 323.15 K): 1.05 ± 0.13 mPa·s; mass density ([2]; 323.15 K): 758.8 ± 0.2 kg/m3 |
| Nc1ccccc1 [aniline] | 4.37 ± 0.53 | 1021.7 ± 0.3 | 3.8 ± 0.46 | 1017.4 ± 0.3 | 3.13 ± 0.38 | 1013.2 ± 0.3 | 2.75 ± 0.33 | 1009 ± 0.3 | 2.43 ± 0.29 | 1004.7 ± 0.3 | 2.14 ± 0.26 | 1000.4 ± 0.3 | 1.96 ± 0.24 | 995.5 ± 0.3 |  |  |  |  |  |  |  |
| CC(C)O [propan-2-ol] | 2.42 ± 0.29 | 785.4 ± 0.2 | 2.08 ± 0.25 | 781.1 ± 0.2 | 1.8 ± 0.22 | 776.8 ± 0.2 | 1.56 ± 0.19 | 772.4 ± 0.2 | 1.36 ± 0.16 | 768 ± 0.2 | 1.19 ± 0.14 | 763.4 ± 0.2 | 1.05 ± 0.13 | 758.8 ± 0.2 |  |  |  |  |  |  |  |
| CCCC(C)O (stereo not drawn) [pentan-2-ol] + Nc1ccccc1 |  |  |  |  |  |  |  |  |  |  |  |  |  |  | 3.97 ± 0.48 | 809.3 ± 0.2 | 3.44 ± 0.41 | 805.3 ± 0.2 | 2.94 ± 0.35 | 801.2 ± 0.2 | viscosity ([2]; 308.15 K): 2.48 ± 0.3 mPa·s; mass density ([2]; 308.15 K): 797 ± 0.2 kg/m3; viscosity ([2]; 313.15 K): 2.04 ± 0.25 mPa·s; mass density ([2]; 313.15 K): 792.7 ± 0.2 kg/m3; viscosity ([2]; 318.15 K): 1.65 ± 0.2 mPa·s; mass density ([2]; 318.15 K): 788.4 ± 0.2 kg/m3; viscosity ([2]; 323.15 K): 1.29 ± 0.16 mPa·s; mass density ([2]; 323.15 K): 784 ± 0.2 kg/m3 |
| CCC(C)O (stereo not drawn) [butan-2-ol] | 3.67 ± 0.44 | 806.7 ± 0.2 | 3.04 ± 0.37 | 802.7 ± 0.2 | 2.54 ± 0.31 | 798.4 ± 0.2 | 2.13 ± 0.26 | 794.1 ± 0.2 | 1.8 ± 0.22 | 789.8 ± 0.2 | 1.54 ± 0.19 | 785.2 ± 0.2 | 1.33 ± 0.16 | 780.6 ± 0.2 |  |  |  |  |  |  |  |
